In patent publication US20190337924A1, “SUBSTITUTED HYDANTOIN AND THIOHYDANTOIN DERIVATIVES AS ANDROGEN RECEPTOR ANTAGONISTS” (Janssen Pharmaceutica NV, priority 2016, published 2019):
Where a name gives a salt, the structure may show the parent alone. Read-outs that look alike come from different tables or passages of the source.

Biological target: T1, wild-type Androgen Receptor (AR-wt) (Homo sapiens, UniProt P10275)
T1 construct: expressed in transfected cells; host or cells: LNCaP
T1 sequence (P10275 1-920): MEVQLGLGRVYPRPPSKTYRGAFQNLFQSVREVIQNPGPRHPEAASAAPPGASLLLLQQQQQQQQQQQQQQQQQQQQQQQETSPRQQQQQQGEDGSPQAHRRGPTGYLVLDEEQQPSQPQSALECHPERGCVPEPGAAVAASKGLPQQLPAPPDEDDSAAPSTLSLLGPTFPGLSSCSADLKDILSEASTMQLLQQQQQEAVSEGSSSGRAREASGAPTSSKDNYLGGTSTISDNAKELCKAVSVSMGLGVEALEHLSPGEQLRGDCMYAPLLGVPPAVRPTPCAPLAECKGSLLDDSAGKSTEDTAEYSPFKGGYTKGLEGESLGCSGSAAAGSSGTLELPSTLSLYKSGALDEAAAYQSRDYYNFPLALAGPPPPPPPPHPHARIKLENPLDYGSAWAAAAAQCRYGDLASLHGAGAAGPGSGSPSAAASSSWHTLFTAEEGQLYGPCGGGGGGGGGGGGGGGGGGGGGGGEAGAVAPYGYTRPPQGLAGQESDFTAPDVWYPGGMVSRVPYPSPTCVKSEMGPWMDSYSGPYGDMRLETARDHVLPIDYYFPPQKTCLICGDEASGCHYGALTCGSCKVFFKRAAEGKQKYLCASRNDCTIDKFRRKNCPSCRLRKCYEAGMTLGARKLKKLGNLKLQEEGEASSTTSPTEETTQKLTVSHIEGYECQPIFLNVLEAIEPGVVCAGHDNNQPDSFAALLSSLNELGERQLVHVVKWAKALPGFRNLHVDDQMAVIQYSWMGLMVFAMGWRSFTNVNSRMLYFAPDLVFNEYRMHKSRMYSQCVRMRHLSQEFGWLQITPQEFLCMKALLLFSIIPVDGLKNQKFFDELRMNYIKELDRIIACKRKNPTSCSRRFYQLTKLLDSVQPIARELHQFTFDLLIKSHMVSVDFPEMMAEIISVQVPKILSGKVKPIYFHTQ
Experiment: AR reporter assay, LNCaP-AR-wt AG (agonist mode)
Format: cell-based
Details: for Emax: read-out: LNCaP-AR-wt AG MAX % Stim
Description: LNCaP AR (cs) and LNCaP F876L luciferase cell lines were generated by transduction of each cell line (description of cell line generation Joseph J D, Lu N, Qian J, Sensintaffar J, Shao G, Brigham D, Moon M, Maneval E C, Chen I, Darimont B, Hager J H. A clinically relevant androgen receptor mutation confers resistance to second-generation antiandrogens enzalutamide and ARN-509. Cancer Discov 2013; 3:1020-1029) with an Androgen Response Element Firefly Luciferase lentiviral construct at an MOI (multiplicity of infection) of 50 following the manufacturer's instructions (Qiagen). A stable pooled-population cell line was generated using puromycin (Life Technologies) selection at 1:10,000 v/v. The protocol below was used for both cell lines and for testing of the compounds of Formula (I) of the present invention.
LNCaP cells were grown to about 80% confluence, media removed and cells rinsed in Hank's balanced salt solution prior to separation from the plate with 0.05% Trypsin EDTA. Cells were lifted and trypsin negated in complete CSS (charcoal stripped serum) culture media. CSS was maintained on cells for 24 h prior to assay, at which time 5,000 cells/[…] were seeded in Greiner 384 well White/White Tissue Culture Treated Plates and incubated for a further 1-2 hours at 37° C., 5% CO2, prior to addition of 10 μL of 4× Test Compounds (compounds described herein) or Assay Controls (all diluted in complete media containing 10% css). A further 10 μL of 4× R-1881 Agonist Challenge (antagonist assay) or Buffer (agonist assay) was then added (all diluted in complete media containing 10% css). Agonist challenge was at 400 pM for WT assay and 600 pM for F876L assay. Plates containing cells and compounds herein were incubated for a further 20-24 hours at 37° C., 5% CO2 before addition of 40 μL/well of Steady-Glo Luciferase Assay System Reagent (Promega#E2520). After 1 h, plates were read for luminescence on a BMG Pherastar.
((Sample RLU−Ave Low Control RLU[DMSO/Buffer])/(Ave High Control RLU [1 μM R-1881]—Ave Low Control RLU[DMSO/Buffer]))*100.
EC/IC50 calculations were achieved utilizing calculated RLU data and data fitting macros. Data were fit using least-squares methods to the following formula: […]
As used herein: • pIC50 is defined as −Log10(IC50 expressed in [Molar]). • pEC50 is defined as −Log10(EC50 expressed in [Molar]). • MAX % Inh is defined as the maximum % inhibition of R1881 control response observed for a compound over the tested concentration range. • MAX % Stim is defined as the maximum % stimulation (agonist response) observed for a compound over the tested concentration range. • LNCaP-AR-wt ANT refers to the reporter assay using LNCaP cells stably transfected with the Androgen Response Element Firefly Luciferase lentiviral construct and wild-type Androgen Receptor (AR-wt) in Antagonist mode. • LNCaP-AR-wt AG refers to the reporter assay using LNCaP cells stably transfected with the Androgen Response Element Firefly Luciferase lentiviral construct and wild-type Androgen Receptor (AR-wt) in Agonist mode. • LNCaP-AR-F876L ANT refers to the reporter assay using LNCaP cells stably transfected with the Androgen Response Element Firefly Luciferase lentiviral construct and F876L mutant Androgen Receptor (AR-F876L) in Antagonist mode. • LNCaP-AR-F876L AG refers to the reporter assay using LNCaP cells stably transfected with the Androgen Response Element Firefly Luciferase lentiviral construct and F876L mutant Androgen Receptor (AR-F876L) in Agonist mode.

[1] = agonist mode (buffer, no R-1881), -Log10(EC50 in Molar), read-out: LNCaP-AR-wt AG pEC50 (converted)

| SMILES | EC50 [µM] | Emax [%] | EC50 [1] [µM] |
| --- | --- | --- | --- |
| CC1(C)C(=O)N(c2ccc(C#N)c(C(F)(F)F)c2)C(=S)N1c1ccc(OC2CCNCC2)cc1 [Compound 1, 4-(4,4-Dimethyl-5-oxo-3-(4-(piperidin-4-yloxy)phenyl)-2-thioxoimidazolidin-1-yl)-2-(trifluoromethyl)benzonitrile] | > 15.1 | 0.6 |  |
| CN1CCC(Oc2ccc(N3C(=S)N(c4ccc(C#N)c(C(F)(F)F)c4)C(=O)C3(C)C)cc2)CC1 [Compound 2, 4-(4,4-Dimethyl-3-(4-((1-methylpiperidin-4-yl)oxy)phenyl)-5-oxo-2-thioxoimidazolidin-1-yl)-2-(trifluoromethyl)benzonitrile hydrochloride] | > 15.1 | -0.2 |  |
| CC1(C)C(=O)N(c2ccc(C#N)c(C(F)(F)F)c2)C(=S)N1c1ccc(OC2CCNCC2)nc1 [Compound 3, 4-(4,4-Dimethyl-5-oxo-3-(6-(piperidin-4-yloxy)pyridin-3-yl)-2-thioxoimidazolidin-1-yl)-2-(trifluoromethyl)benzonitrile hydrochloride] | > 15.1 | 0.5 |  |
| CN1CCC(Oc2ccc(N3C(=S)N(c4ccc(C#N)c(C(F)(F)F)c4)C(=O)C3(C)C)cn2)CC1 [Compound 4, 4-(4,4-Dimethyl-3-(6-((1-methylpiperidin-4-yl)oxy)pyridin-3-yl)-5-oxo-2-thioxoimidazolidin-1-yl)-2-(trifluoromethyl)benzonitrile hydrochloride] | > 15.1 | 0.1 |  |
| CC1(C)C(=O)N(c2ccc(C#N)c(C(F)(F)F)c2)C(=S)N1c1cnc(OC2CCNCC2)nc1 [Compound 5, 4-(4,4-Dimethyl-5-oxo-3-(2-(piperidin-4-yloxy)pyrimidin-5-yl)-2-thioxoimidazolidin-1-yl)-2-(trifluoromethyl)benzonitrile] | > 15.1 | 0.1 |  |
| CN1CCC(Oc2ncc(N3C(=S)N(c4ccc(C#N)c(C(F)(F)F)c4)C(=O)C3(C)C)cn2)CC1 [Compound 6, 4-(4,4-Dimethyl-3-(2-((1-methylpiperidin-4-yl)oxy)pyrimidin-5-yl)-5-oxo-2-thioxoimidazolidin-1-yl)-2-(trifluoromethyl)benzonitrile] | > 15.1 | 0.8 |  |
| CC1(C)C(=O)N(c2ccc(C#N)c(Cl)c2)C(=S)N1c1ccc(OC2CCNCC2)cc1 [Compound 7, 2-Chloro-4-(4,4-dimethyl-5-oxo-3-(4-(piperidin-4-yloxy)phenyl)-2-thioxoimidazolidin-1-yl)benzonitrile hydrochloride] | > 15.1 | 0 |  |
| CN1CCC(Oc2ccc(N3C(=S)N(c4ccc(C#N)c(Cl)c4)C(=O)C3(C)C)cc2)CC1 [Compound 8, 2-Chloro-4-(4,4-dimethyl-3-(4-((1-methylpiperidin-4-yl)oxy)phenyl)-5-oxo-2-thioxoimidazolidin-1-yl)benzonitrile hydrochloride] | > 15.1 | 0.1 |  |
| CC1(C)C(=O)N(c2ccc(C#N)c(Cl)c2)C(=S)N1c1ccc(OC2CCNCC2)nc1 [Compound 9, 2-Chloro-4-(4,4-dimethyl-5-oxo-3-(6-(piperidin-4-yloxy)pyridin-3-yl)-2-thioxoimidazolidin-1-yl)benzonitrile hydrochloride] | > 15.1 | -0.2 |  |
| CN1CCC(Oc2ccc(N3C(=S)N(c4ccc(C#N)c(Cl)c4)C(=O)C3(C)C)cn2)CC1 [Compound 10, 2-Chloro-4-(4,4-dimethyl-3-(6-((1-methylpiperidin-4-yl)oxy)pyridin-3-yl)-5-oxo-2-thioxoimidazolidin-1-yl)benzonitrile hydrochloride] | > 15.1 | 0.1 |  |
| N#Cc1ccc(N2C(=O)C3(CCC3)N(c3ccc(OC4CCNCC4)cc3)C2=S)cc1C(F)(F)F [Compound 11, 4-(8-Oxo-5-(4-(piperidin-4-yloxy)phenyl)-6-thioxo-5,7-diazaspiro[3.4]octan-7-yl)-2-(trifluoromethyl)benzonitrile] | > 15.1 | 0.1 |  |
| CN1CCC(Oc2ccc(N3C(=S)N(c4ccc(C#N)c(C(F)(F)F)c4)C(=O)C34CCC4)cc2)CC1 [Compound 12, 4-(5-(4-((1-Methylpiperidin-4-yl)oxy)phenyl)-8-oxo-6-thioxo-5,7-diazaspiro[3.4]octan-7-yl)-2-(trifluoromethyl)benzonitrile] | > 15.1 | 0.4 |  |
| N#Cc1ccc(N2C(=O)C3(CCC3)N(c3ccc(OC4CCNCC4)nc3)C2=S)cc1C(F)(F)F [Compound 13, 4-(8-Oxo-5-(6-(piperidin-4-yloxy)pyridin-3-yl)-6-thioxo-5,7-diazaspiro[3.4]octan-7-yl)-2-(trifluoromethyl)benzonitrile hydrochloride] | > 15.1 | 0.5 |  |
| CN1CCC(Oc2ccc(N3C(=S)N(c4ccc(C#N)c(C(F)(F)F)c4)C(=O)C34CCC4)cn2)CC1 [Compound 14, 4-(5-(6-((1-Methylpiperidin-4-yl)oxy)pyridin-3-yl)-8-oxo-6-thioxo-5,7-diazaspiro[3.4]octan-7-yl)-2-(trifluoromethyl)benzonitrile] | > 15.1 | 0.2 |  |
| N#Cc1ccc(N2C(=O)C3(CCC3)N(c3cnc(OC4CCNCC4)nc3)C2=S)cc1C(F)(F)F [Compound 15, 4-(8-Oxo-5-(2-(piperidin-4-yloxy)pyrimidin-5-yl)-6-thioxo-5,7-diazaspiro[3.4]octan-7-yl)-2-(trifluoromethyl)benzonitrile] | > 15.1 | -0.2 |  |
| CN1CCC(Oc2ncc(N3C(=S)N(c4ccc(C#N)c(C(F)(F)F)c4)C(=O)C34CCC4)cn2)CC1 [Compound 16, 4-(5-(2-((1-Methylpiperidin-4-yl)oxy)pyrimidin-5-yl)-8-oxo-6-thioxo-5,7-diazaspiro[3.4]octan-7-yl)-2-(trifluoromethyl)benzonitrile] | > 15.1 | -0.1 |  |
| Cc1cc(N2C(=O)C3(CCC3)N(c3ccc(OC4CCN(C)CC4)cc3)C2=S)ccc1C#N [Compound 17, 2-Methyl-4-(5-(4-((1-methylpiperidin-4-yl)oxy)phenyl)-8-oxo-6-thioxo-5,7-diazaspiro[3.4]octan-7-yl)benzonitrile] |  | -0.1 | > 15.1 |
| Cc1cc(N2C(=O)C3(CCC3)N(c3ccc(OC4CCN(C)CC4)nc3)C2=S)ccc1C#N [Compound 18, 2-Methyl-4-(5-(6-((1-methylpiperidin-4-yl)oxy)pyridin-3-yl)-8-oxo-6-thioxo-5,7-diazaspiro[3.4]octan-7-yl)benzonitrile] |  | 0.6 | > 15.1 |
